# According to patent US20090069551A1, “Flavorant Compounds” (priority 2006, published 2009):
# Tests used:
# [1] = Sensorial taste evaluation: taste thresholds by modified duo test with a sensory panel; type: in vivo; conditions: for taste threshold: modified duo test, sample versus tap water; for threshold concentration, times lower than the threshold concentration of catechin: relative to catechin
# Source text: Sensorial taste evaluation of (E)-6-(3-hydroxyphenyl)-(4-O-β-D-glucopyranoside)hex-5-en-2-one and (3E,5E)-6-[3-Hydroxy-4-O-β-D-glucopyranoside-phenyl]-hexa-3 ,5-dien-2-one
# For evaluation of taste thresholds of the isolated substances, a modified duo test is used. […] As astringent substances can remain longer on the tongue or possibly can be fortified by addition of tap water, the assessed dilutions (tap water and assay) were given on two different regions of the tongue to compare the taste impressions. The panelists had to determine the dilution at which a difference between sample and tap water could be found.
# [2] = Isoastringency: isointensity of astringent perception with a 700 μM aqueous catechin solution; type: in vivo; conditions: versus 700 μM aqueous catechin solution (pH 4.5)
SMILES,taste threshold [1],"threshold concentration, times lower than the threshold concentration of catechin [1]",isoastringency: concentration needed to reach isointensity of astringent perception with catechin solution [2]
CC(=O)CC/C=C/c1ccc(O[C@@H]2OC(CO)[C@@H](O)C(O)C2O)c(O)c1 (stereo partly drawn) [(E)-6-(3-hydroxyphenyl)-(4-O-β-D-glucopyranoside)hex-5-en-2-one],4.3 µmol/L,about 100 times,120 µmol/L
"CC(=O)/C=C/C=C/c1ccc(O[C@@H]2OC(CO)[C@@H](O)C(O)C2O)c(O)c1 (stereo partly drawn) [(3E,5E)-6-[3-Hydroxy-4-O-β-D-glucopyranoside-phenyl]-hexa-3,5-dien-2-one]",4.0 µmol/L,about 100 times,200 µmol/L
